Where two headings read alike, the source gives them in different places.
Key:
Assay type in all cases: biochemical
human Src enzyme = biological target: T1, human Src enzyme (Homo sapiens, UniProt P12931); assay: Src enzyme inhibitory activity (time-resolved fluorometry, biotinylated peptide phosphorylation); details: read-out: SRC_IC50
T1 construct: purchased Carna Biosciences, Inc. 08-173
In short: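 Compounds were tested for blocking tyrosine phosphorylation of a biotinylated peptide substrate by recombinant human Src. Phosphorylated product was quantified by time-resolved fluorometry using europium cryptate and XL665 conjugates, and IC50 was calculated against the compound-free control.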

human Yes1 enzyme = biological target: T2, human Yes1 enzyme (Homo sapiens, UniProt P07947); assay: Yes1 enzyme inhibitory activity (time-resolved fluorometry, biotinylated peptide phosphorylation); details: read-out: YES_IC50
T2 construct: made in house
In short: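 Inhibition was expressed against a compound-free control to give IC50, using TR-FRET read-out (Eu-cryptate anti-pTyr antibody, streptavidin-XL665).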

human Lck enzyme = biological target: T3, human Lck enzyme (Homo sapiens, UniProt P06239); assay: Lck enzyme inhibitory activity (time-resolved fluorometry, biotinylated peptide phosphorylation); details: read-out: LCK_IC50
T3 construct: purchased Carna Biosciences, Inc. 08-170
In short: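 Readout pairs a europium cryptate-labelled anti-phosphotyrosine antibody with XL665-streptavidin, measured by time-resolved fluorescence. IC50 derived from percent inhibition against untreated controls.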

[1] = biotinylated peptide phosphorylation

T2 sequence (P07947 whole entry): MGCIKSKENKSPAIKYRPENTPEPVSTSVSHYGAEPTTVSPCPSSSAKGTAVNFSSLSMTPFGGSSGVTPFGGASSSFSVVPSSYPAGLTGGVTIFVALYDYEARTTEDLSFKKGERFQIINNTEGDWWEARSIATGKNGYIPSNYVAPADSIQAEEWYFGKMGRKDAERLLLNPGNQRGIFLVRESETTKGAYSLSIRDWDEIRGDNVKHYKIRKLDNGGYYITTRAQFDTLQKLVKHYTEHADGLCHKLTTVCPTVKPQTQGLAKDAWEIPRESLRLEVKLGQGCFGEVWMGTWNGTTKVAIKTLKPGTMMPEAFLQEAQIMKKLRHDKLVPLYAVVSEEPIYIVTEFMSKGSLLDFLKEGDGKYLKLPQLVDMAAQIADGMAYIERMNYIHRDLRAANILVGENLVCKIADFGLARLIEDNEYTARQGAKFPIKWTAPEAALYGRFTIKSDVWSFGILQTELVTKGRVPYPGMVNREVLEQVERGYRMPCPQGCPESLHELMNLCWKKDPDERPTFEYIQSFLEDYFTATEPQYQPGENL
T3 sequence (P06239 whole entry): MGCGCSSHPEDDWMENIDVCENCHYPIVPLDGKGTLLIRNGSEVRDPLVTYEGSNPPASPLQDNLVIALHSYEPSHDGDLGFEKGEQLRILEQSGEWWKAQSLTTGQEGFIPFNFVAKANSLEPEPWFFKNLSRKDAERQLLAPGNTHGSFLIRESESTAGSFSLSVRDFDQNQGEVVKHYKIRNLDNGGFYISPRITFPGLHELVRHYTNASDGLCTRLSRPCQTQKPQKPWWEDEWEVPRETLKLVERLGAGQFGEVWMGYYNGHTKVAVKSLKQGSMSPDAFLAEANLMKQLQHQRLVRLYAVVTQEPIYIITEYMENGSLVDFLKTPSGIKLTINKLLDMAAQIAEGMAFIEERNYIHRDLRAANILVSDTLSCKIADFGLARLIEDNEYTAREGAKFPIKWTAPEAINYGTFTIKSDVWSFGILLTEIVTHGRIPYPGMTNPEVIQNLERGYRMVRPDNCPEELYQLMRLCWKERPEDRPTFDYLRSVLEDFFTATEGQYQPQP
T1 sequence (P12931 whole entry): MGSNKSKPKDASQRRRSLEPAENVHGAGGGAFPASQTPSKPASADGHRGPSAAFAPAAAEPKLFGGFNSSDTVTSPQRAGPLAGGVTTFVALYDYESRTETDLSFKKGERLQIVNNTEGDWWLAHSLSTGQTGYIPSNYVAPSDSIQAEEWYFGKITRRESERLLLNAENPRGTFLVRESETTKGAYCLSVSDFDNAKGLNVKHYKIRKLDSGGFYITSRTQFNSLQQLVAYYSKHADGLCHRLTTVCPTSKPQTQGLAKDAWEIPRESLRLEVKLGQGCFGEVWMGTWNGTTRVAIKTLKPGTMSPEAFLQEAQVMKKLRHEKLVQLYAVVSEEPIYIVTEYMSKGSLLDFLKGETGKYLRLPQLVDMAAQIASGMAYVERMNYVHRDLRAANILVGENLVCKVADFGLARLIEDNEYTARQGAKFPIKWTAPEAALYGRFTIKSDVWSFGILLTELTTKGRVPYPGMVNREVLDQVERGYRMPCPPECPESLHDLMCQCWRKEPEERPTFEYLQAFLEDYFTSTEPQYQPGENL

Row | IC50 (human Src enzyme; [1]) [nM] | IC50 (human Yes1 enzyme; [1]) [nM] | IC50 (human Lck enzyme; [1]) [nM] | IC50 (human Src enzyme) [nM] | IC50 (human Yes1 enzyme) [nM] | IC50 (human Lck enzyme) [nM] | Structure (SMILES)
1 | 38 | 2.6 | 9.1 |  |  |  | Cc1cc(Oc2ccccc2F)ncc1-n1ncc(C(=O)c2cc3cc(OC(F)F)c(N4CCC(N5CCOCC5)CC4)cc3[nH]2)c1N [Example 4-25-030, [5-amino-1-[6-(2-fluorophenoxy)-4-methylpyridin-3-yl]pyrazol-4-yl]-[5-(difluoromethoxy)-6-(4-morpholin-4-ylpiperidin-1-yl)-1H-indol-2-yl]methanone]
2 | 48 | 0.83 | 11 |  |  |  | Cc1cc(Oc2ccccc2F)ccc1-n1ncc(C(=O)c2cc3cc(OC(F)F)c(N4CCC(N5CCOCC5)CC4)cc3[nH]2)c1N [Example 4-25-032, [5-amino-1-[4-(2-fluorophenoxy)-2-methylphenyl]pyrazol-4-yl]-[5-(difluoromethoxy)-6-(4-morpholin-4-ylpiperidin-1-yl)-1H-indol-2-yl]methanone]
3 |  |  |  | 7.6 | 1.1 | 2.9 | CC(C)N1CCC(c2cc3cc(C(=O)c4cnn(-c5ccc(Oc6ccccc6Cl)cc5)c4N)[nH]c3cc2F)CC1 [Example 5-1-001, [5-amino-1-[4-(2-chlorophenoxy)phenyl]pyrazol-4-yl]-[6-fluoro-5-(1-propan-2-ylpiperidin-4-yl)-1H-indol-2-yl]methanone]
4 |  |  |  | 26 | 2 | 4.7 | CC(C)N1CCC(c2cc3cc(C(=O)c4cnn(-c5ccc(Oc6cccc(Cl)c6)cc5F)c4N)[nH]c3cc2F)CC1 [Example 5-1-003, [5-amino-1-[4-(3-chlorophenoxy)-2-fluorophenyl]pyrazol-4-yl]-[6-fluoro-5-(1-propan-2-ylpiperidin-4-yl)-1H-indol-2-yl]methanone]
5 |  |  |  | 56 | 0.73 | 6 | CC(C)N1CCC(c2cc3[nH]c(C(=O)c4cnn(-c5ccc(Oc6cccc(F)c6)cc5F)c4N)cc3cc2F)CC1 [Example 5-1-006, [5-amino-1-[2-fluoro-4-(3-fluorophenoxy)phenyl]pyrazol-4-yl]-[5-fluoro-6-(1-propan-2-ylpiperidin-4-yl)-1H-indol-2-yl]methanone]
6 |  |  |  | 11 | 1.1 | 2.2 | CC(C)N1CCC(c2cc3[nH]c(C(=O)c4cnn(-c5ccc(Oc6ccccc6F)cc5)c4N)cc3cc2F)CC1 [Example 5-1-007, [5-amino-1-[4-(2-fluorophenoxy)phenyl]pyrazol-4-yl]-[5-fluoro-6-(1-propan-2-ylpiperidin-4-yl)-1H-indol-2-yl]methanone]
7 |  |  |  | 60 | 2.7 | 4.6 | CC(C)N1CCC(c2cc3[nH]c(C(=O)c4cnn(-c5ccc(Oc6cccc(Cl)c6)cc5)c4N)cc3cc2F)CC1 [Example 5-1-008, [5-amino-1-[4-(3-chlorophenoxy)phenyl]pyrazol-4-yl]-[5-fluoro-6-(1-propan-2-ylpiperidin-4-yl)-1H-indol-2-yl]methanone]
8 |  |  |  | 38 | 2.5 | 3.6 | CC(C)N1CCC(c2cc3[nH]c(C(=O)c4cnn(-c5ccc(Oc6cccc(Cl)c6)cc5F)c4N)cc3cc2F)CC1 [Example 5-1-010, [5-amino-1-[4-(3-chlorophenoxy)-2-fluorophenyl]pyrazol-4-yl]-[5-fluoro-6-(1-propan-2-ylpiperidin-4-yl)-1H-indol-2-yl]methanone]
9 |  |  |  | 14 | 0.86 | 2.6 | CC(C)N1CCC(c2cc3[nH]c(C(=O)c4cnn(-c5ccc(Oc6cccc(F)c6F)cc5F)c4N)cc3cc2F)CC1 [Example 5-1-011, [5-amino-1-[4-(2,3-difluorophenoxy)-2-fluorophenyl]pyrazol-4-yl]-[5-fluoro-6-(1-propan-2-ylpiperidin-4-yl)-1H-indol-2-yl]methanone]
10 |  |  |  | 310 | 2.5 | 23 | Cc1cc(-n2ncc(C(=O)c3cc4cc(C)c(C5CCN(C(C)C)CC5)cc4[nH]3)c2N)ccc1Oc1ccccc1F [Example 5-1-012, [5-amino-1-[4-(2-fluorophenoxy)-3-methylphenyl]pyrazol-4-yl]-[5-methyl-6-(1-propan-2-ylpiperidin-4-yl)-1H-indd-2-yl] methanone]
11 |  |  |  | 30 | 1.6 | 2.5 | CC(C)N1CCC(c2cc3[nH]c(C(=O)c4cnn(-c5ccc(Oc6cccc(F)c6F)cc5)c4N)cc3cc2F)CC1 [Example 5-1-013, [5-amino-1-[4-(2,3-difluorophenoxy)phenyl]pyrazol-4-yl]-[5-fluoro-6-(1-propan-2-ylpiperidin-4-yl)-1H-indol-2-yl]methanone]

Second part, the compound before the results:

Row | Structure (SMILES) | IC50 (human Src enzyme; [1]) [nM] | IC50 (human Yes1 enzyme; [1]) [nM] | IC50 (human Lck enzyme; [1]) [nM] | IC50 (human Src enzyme) [nM] | IC50 (human Yes1 enzyme) [nM] | IC50 (human Lck enzyme) [nM]
12 | Cc1cc(Oc2ccccc2F)ncc1-n1ncc(C(=O)c2cc3cc(OCC(F)F)c(N4CCC(N5CCOCC5)CC4)cc3[nH]2)c1N [Example 4-25-026, {5-amino-1-[6-(2-fluorophenoxy)-4-methylpyridin-3-yl]pyrazol-4-yl}-[5-(2,2-difluoroethoxy)-6-(4-morpholin-4-ylpiperidin-1-yl)-1H-indol-2-yl]methanone] | 12 | 0.92 | 1.6 |  |  | 
13 | Cc1cc(Oc2c(F)cccc2F)ncc1-n1ncc(C(=O)c2cc3cc(OCC(F)F)c(N4CCC(N5CCOCC5)CC4)cc3[nH]2)c1N [Example 4-25-027, [5-amino-1-[6-(2,6-difluorophenoxy)-4-methylpyridin-3-yl]pyrazol-4-yl]-[5-(2,2-difluoroethoxy)-6-(4-morpholin-4-ylpiperidin-1-yl)-1H-indol-2-yl]methanone] | 23 | 0.8 | 2.1 |  |  | 
14 | Cc1cc(Oc2ccccc2F)ccc1-n1ncc(C(=O)c2cc3cc(OCC(F)F)c(N4CCC(N5CCOCC5)CC4)cc3[nH]2)c1N [Example 4-25-028, [5-amino-1-[4-(2-fluorophenoxy)-2-methylphenyl]pyrazol-4-yl]-[5-(2,2-difluoroethoxy)-6-(4-morpholin-4-ylpiperidin-1-yl)-1H-indol-2-yl]methanone] | 13 | 0.94 | 4.9 |  |  | 
15 | Cc1cc(Oc2ccccc2F)cc(F)c1-n1ncc(C(=O)c2cc3cc(OCC(F)F)c(N4CCC(N5CCOCC5)CC4)cc3[nH]2)c1N [Example 4-25-029, [5-amino-1-[2-fluoro-4-(2-fluorophenoxy)-6-methylphenyl]pyrazol-4-yl]-[5-(2,2-difluoroethoxy)-6-(4-morpholin-4-ylpiperidin-1-yl)-1H-indol-2-yl]methanone] | 21 | 2.4 | 6.8 |  |  | 
16 | Cc1cc(Oc2c(F)cccc2F)ncc1-n1ncc(C(=O)c2cc3cc(OC(F)F)c(N4CCC(N5CCOCC5)CC4)cc3[nH]2)c1N [Example 4-25-031, [5-amino-1-[6-(2,6-difluorophenoxy)-4-methylpyridin-3-yl]pyrazol-4-yl]-[5-(difluoromethoxy)-6-(4-morpholin-4-ylpiperidin-1-yl)-1H-indol-2-yl]methanone] | 48 | 1.9 | 7.2 |  |  | 
17 | Cc1cc(Oc2ccccc2F)ccc1-n1ncc(C(=O)c2cc3cc(F)c(NS(=O)(=O)CC(=O)N4CCCC4)cc3[nH]2)c1N [Example 4-26-001, N-(2-(5-amino-1-(4-(2-fluorophenoxy)-2-methylphenyl)-1H-pyrazole-4-carbonyl)-5-fluoro-1H-indol-6-yl)-2-oxo-2-(pyrrolidin-1-yl)ethanesulfonamide] | 26 | 1.5 | 7.6 |  |  | 
18 | CC(C)N1CCC(c2cc3cc(C(=O)c4cnn(-c5ccc(Oc6cccc(F)c6)cc5F)c4N)[nH]c3cc2F)CC1 [Example 5-1-002, [5-amino-1-[2-fluoro-4-(3-fluorophenoxy)phenyl]pyrazol-4-yl]-[6-fluoro-5-(1-propan-2-ylpiperidin-4-yl)-1H-indol-2-yl]methanone] |  |  |  | 6.1 | 0.87 | 2.2
19 | CC(C)N1CCC(c2cc3cc(C(=O)c4cnn(-c5ccc(Oc6ccccc6F)cc5)c4N)[nH]c3cc2F)CC1 [Example 5-1-004, [5-amino-1-[4-(2-fluorophenoxy)phenyl]pyrazol-4-yl]-[6-fluoro-5-(1-propan-2-ylpiperidin-4-yl)-1H-indol-2-yl]methanone] |  |  |  | 3.6 | 0.78 | 2.8
20 | Cc1cc(Oc2cccc(F)c2)ccc1-n1ncc(C(=O)c2cc3cc(C4CCN(C(C)C)CC4)c(F)cc3[nH]2)c1N [Example 5-1-005, [5-amino-1-[4-(3-fluorophenoxy)-2-methylphenyl]pyrazol-4-yl]-[6-fluoro-5-(1-propan-2-ylpiperidin-4-yl)-1H-indol-2-yl] methanone] |  |  |  | 37 | 0.71 | 4.2
21 | Cc1cc(Oc2cccc(F)c2)ccc1-n1ncc(C(=O)c2cc3cc(F)c(C4CCN(C(C)C)CC4)cc3[nH]2)c1N [Example 5-1-009, [5-amino-1-[4-(3-fluorophenoxy)-2-methylphenyl]pyrazol-4-yl]-[5-fluoro-6-(1-propan-2-ylpiperidin-4-yl)-1H-indol-2-yl] methanone] |  |  |  | 9.3 | 1.9 | 2.8
22 | CC(C)N1CCC(c2cc3[nH]c(C(=O)c4cnn(-c5ccc(Oc6cccc(F)c6)cc5)c4N)cc3cc2F)CC1 [Example 5-1-014, [5-amino-1-[4-(3-fluorophenoxy)phenyl]pyrazol-4-yl]-[5-fluoro-6-(1-propan-2-ylpiperidin-4-yl)-1H-indol-2-yl]methanone] |  |  |  | 43 | 2.4 | 3

— patent US10479780B2, “Aminopyrazole derivatives” (Chugai Seiyaku Kabushiki Kaisha, priority 2015, dated 2019)
